Experiment [1] concerns Hs 746T (human gastric carcinoma cell line). Nature of the experiment: 48 hr CTG viability assay, Hs 746T. Type of experiment: cell-based. The settings on record: Hs746T, 48 hr CTG, read-out: Hs 746T IC50. The essentials:
(§1)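 Growth inhibition by compound over 48 h; IC50 (nM) derived from duplicate CellTiter-Glo luminescence readings across 0.0015–10 uM.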

Experiment [2] deals with T1, β5 subunit of the human immunoproteasome (IPS) (Homo sapiens, UniProt P28062).
T1 construct: purchased Boston Biochem E-370
The experiment is described as follows: β5 inhibition assay, human immunoproteasome (Suc-LLVY-AMC). The experiment is classed as biochemical. To be noted: IC50 class, Suc-LLVY-AMC substrate. The essentials:
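Human immunoproteasome (1 nM final) was preincubated 10 min at RT with compound in 100 mM HEPES pH 7.5, 50 mM NaCl, 0.02% SDS, 1 mM DTT. Suc-LLVY-AMC (22.6 μM final) was then added for 4 h at RT in the dark. After stopping with 1 μM bortezomib, AMC fluorescence was read (ex 355/em 460 nm).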

The test system of experiment [3] is A549 (human lung carcinoma cell line). The experiment is described as follows: Glo assay of A549 cells (Table 3; ProteasomeGlo plating scheme). Type of experiment: cell-based. The settings on record: Homo sapiens; A549 cells; read-out: PGLo A549. A digest of the protocol: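 IC50 values (nM) come from a cell-based chymotrypsin-like Proteasome-Glo luminescence assay. Compound exposure ran 105 min at 37° C.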

For experiment [4], the system named is MM1 S (B lymphoblast cell line). Nature of the experiment: 48 hr CTG viability assay, MM1S. The experiment is classed as cell-based. The settings on record: Homo sapiens, 48 hr CTG, read-out: MM1S IC50. A digest of the protocol: as §1
Experiment [5] deals with T2, β5 subunit of the human constitutive proteasome (CPS) (Homo sapiens, UniProt P28074).
T2 construct: purchased Boston Biochem E-360
The experiment is described as follows: β5 inhibition assay, human constitutive proteasome (Suc-LLVY-AMC). The experiment is classed as biochemical. The settings on record: IC50 class, Suc-LLVY-AMC substrate. As to the method:
The enzymatic activity of the β5 subunit of the human constitutive proteasome (CPS) is analyzed. In another assay, which differs from the assay of the human constitutive proteasome only in using the human immunoproteasome (IPS) the enzymatic activity of the β5 subunit of the human immunoproteasome (IPS) is analyzed. […] Inhibition is indicated as IC50 [nM] (“-”=not measured).

Experiment [6] concerns RPMI 8226 (B lymphocyte cell line, multiple myeloma). The experiment is described as follows: 48 hr CTG viability assay, RPMI 8226. The experiment is classed as cell-based. The settings on record: Homo sapiens, RPMI-8226; 48 hr CTG; read-out: RPMI-8226 IC50. The essentials:
as §1

Turning to `Cc1ccc2cc1CNC(=O)[C@H](CCc1ccccc1)NC(=O)[C@@H](NC(=O)CCOCc1ccccc1)CC(=O)N1CCCC(CCO2)C1` (stereo partly drawn) [Compound 589, 3-(benzyloxy)-N-((9S,12S)-5^4-methyl-8,11,14-trioxo-9-phenethyl-4-oxa-7,10-diaza-1(3,1)-piperidina-5(1,3)-benzenacyclotetradecaphane-12-yl)propanamide], the IC50 in experiment [1], in experiment [2], in experiment [3], in experiment [4], in experiment [5] and in experiment [6] was < 100 nM throughout.

Turning to `Cc1ccc2cc1CNC(=O)[C@H](CCc1ccccc1)NC(=O)[C@@H](NC(=O)CCNC(=O)c1cccc(OCC(C)C)c1)CC(=O)N1CCCC(CCO2)C1` (stereo partly drawn) [Compound 651, 3-isobutoxy-N-(3-(((9S,12S)-5^4-methyl-8,11,14-trioxo-9-phenethyl-4-oxa-7,10-diaza-1(3,1)-piperidina-5(1,3)-benzenacyclotetradecaphane-12-yl)amino)-3-oxopropyl)benzamide], the IC50 in experiment [1], in experiment [2], in experiment [3], in experiment [4], in experiment [5] and in experiment [6] was < 100 nM throughout.

On to `Cc1ccc2cc1CNC(=O)[C@H](CCc1ccccc1)NC(=O)[C@@H](NC(=O)C(C)(C)CO)CCCC(=O)NCCCCO2` [Compound 722, 3-hydroxy-2,2-dimethyl-N-((12S,15S)-1^4-methyl-8,13,16-trioxo-15-phenethyl-2-oxa-7,14,17-triaza-1(1,3)-benzenacyclooctadecaphane-12-yl)propanamide], for which the IC50 in experiment [1] was 500 to 1000 nM; in experiment [2], < 100 nM; in experiment [3] it was 100 to 500 nM; in experiment [4] it was 100 to 500 nM; in experiment [5] it was < 100 nM; in experiment [6], 100 to 500 nM.

As to `Cc1ccc2cc1CNC(=O)[C@H](CCc1ccccc1)NC(=O)[C@@H](NC(=O)NC1CCCCC1)CC(=O)N1CCCC(CCO2)C1` (stereo partly drawn) [Compound 593, 1-cyclohexyl-3-((9S,12S)-5^4-methyl-8,11,14-trioxo-9-phenethyl-4-oxa-7,10-diaza-1(3,1)-piperidina-5(1,3)-benzenacyclotetradecaphane-12-yl)urea], the IC50 in experiment [1], in experiment [2], in experiment [3], in experiment [4], in experiment [5] and in experiment [6] was < 100 nM each time.

As for `Cc1ccc2cc1CNC(=O)[C@H](CCc1ccccc1)NC(=O)[C@@H](NC(=O)CCNC1CC3(COC3)C1)CC(=O)N1CCCC(CCO2)C1` (stereo partly drawn) [Compound 720, 3-((2-oxaspiro[3.3]heptan-6-yl)amino)-N-((9S,12S)-5^4-methyl-8,11,14-trioxo-9-phenethyl-4-oxa-7,10-diaza-1(3,1)-piperidina-5(1,3)-benzenacyclotetradecaphane-12-yl)propanamide], the IC50 in experiment [1] is 500 to 1000 nM; in experiment [2], < 100 nM; in experiment [3], < 100 nM; in experiment [4], 100 to 500 nM; in experiment [5] it was < 100 nM; in experiment [6], 100 to 500 nM.

In the case of `Cc1ccc2cc1CNC(=O)[C@H](CCc1ccccc1)NC(=O)[C@@H](NC(=O)C1CC3(C1)CN(C)C3)CC(=O)N1CCCC(CCO2)C1` (stereo partly drawn) [Compound 714, 2-methyl-N-((9S,12S)-5^4-methyl-8,11,14-trioxo-9-phenethyl-4-oxa-7,10-diaza-1(3,1)-piperidina-5(1,3)-benzenacyclotetradecaphane-12-yl)-2-azaspiro[3.3]heptane-6-carboxamide], the IC50 is 100 to 500 nM in experiment [1]; < 100 nM in experiment [2]; < 100 nM in experiment [3]; 100 to 500 nM in experiment [4]; < 100 nM in experiment [5]; < 100 nM in experiment [6].

As to `Cc1ccc2cc1CNC(=O)[C@H](CCc1ccccc1)NC(=O)[C@@H](NC(=O)CCNC1CCCC1)CC(=O)N1CCCC(CCO2)C1` (stereo partly drawn) [Compound 675, 3-(cyclopentylamino)-N-((9S,12S)-5^4-methyl-8,11,14-trioxo-9-phenethyl-4-oxa-7,10-diaza-1(3,1)-piperidina-5(1,3)-benzenacyclotetradecaphane-12-yl)propanamide], the IC50 in experiment [1], in experiment [2], in experiment [3], in experiment [4], in experiment [5] and in experiment [6] was < 100 nM in each case.

For `Cc1ccc2cc1CNC(=O)[C@H](CCc1ccccc1)NC(=O)[C@@H](NC(=O)C13CC(O)(C1)C3)CC(=O)N1CCCC(CCO2)C1` (stereo partly drawn) [Compound 655, 3-hydroxy-N-((9S,12S)-5^4-methyl-8,11,14-trioxo-9-phenethyl-4-oxa-7,10-diaza-1(3,1)-piperidina-5(1,3)-benzenacyclotetradecaphane-12-yl)bicyclo[1.1.1]pentane-1-carboxamide], the IC50 in experiment [1], in experiment [2], in experiment [3], in experiment [4], in experiment [5] and in experiment [6] was < 100 nM throughout.

For the molecule `COc1cccc(CCOCCC(=O)N[C@H]2CC(=O)N3CCCC(CCOc4ccc(C)c(c4)CNC(=O)[C@H](CCc4ccccc4)NC2=O)C3)c1` (stereo partly drawn) [Compound 581, 3-(3-methoxyphenethoxy)-N-((9S,12S)-5^4-methyl-8,11,14-trioxo-9-phenethyl-4-oxa-7,10-diaza-1(3,1)-piperidina-5(1,3)-benzenacyclotetradecaphane-12-yl)propanamide], the IC50 in experiment [1], in experiment [2], in experiment [3], in experiment [4], in experiment [5] and in experiment [6] was < 100 nM throughout.

As for `Cc1ccc2cc1CNC(=O)[C@H](CCc1ccccc1)NC(=O)[C@@H](NC(=O)CCO[C@H]1C[C@@H]3CC[C@H]1C3)CC(=O)N1CCCC(CCO2)C1` [Compound 642, 3-(((1S,2S,4R)-bicyclo[2.2.1]heptan-2-yl)oxy)-N-((9S,12S)-5^4-methyl-8,11,14-trioxo-9-phenethyl-4-oxa-7,10-diaza-1(3,1)-piperidina-5(1,3)-benzenacyclotetradecaphane-12-yl)propanamide], the IC50 in experiment [1], in experiment [2], in experiment [3], in experiment [4], in experiment [5] and in experiment [6] was < 100 nM throughout.

Take `Cc1ccc2cc1CNC(=O)[C@H](CCc1ccccc1)NC(=O)[C@@H](NC(=O)CCN1CC3(CCOCC3)C1)CC(=O)N1CCCC(CCO2)C1` (stereo partly drawn) [Compound 658, N-((9S,12S)-5^4-methyl-8,11,14-trioxo-9-phenethyl-4-oxa-7,10-diaza-1(3,1)-piperidina-5(1,3)-benzenacyclotetradecaphane-12-yl)-3-(7-oxa-2-azaspiro[3.5]nonan-2-yl)propanamide]: the IC50 in experiment [1], in experiment [2], in experiment [3], in experiment [4], in experiment [5] and in experiment [6] was < 100 nM in each case.

Source of the values: patent publication US20240415819A1, “MACROCYCLIC COMPOUNDS AS PROTEASOME SUBUNIT BETA TYPE-5 INHIBITORS” (Lead Discovery Center GmbH, priority 2021, published 2024).
